≈ marks a conversion by molar mass, not a printed value. Like-named read-outs stand apart in the source and are kept apart here. Bridge positions count the residues as written; N and C are the ends. Peptide text beside a SMILES is read from it.
Columns and labels:
[1] = tested on: P. aeruginosa ATCC CRM 9027 biofilm; experiment: Peptide and antibiotic co-administration MBIC checkerboard assay; type: cell-based, Pseudomonas aeruginosa; details: 24 h, crystal violet, 595 nm
Excerpt: The plate was then carefully cleaned under running water.

[2] = tested on: A. baumannii BAA 747 biofilm; details: checkerboard MBIC, 24 h, crystal violet, 595 nm
Protocol: (§1) Parameter fractional inhibitory concentration indices (FICIs) were used to evaluate the synergistic effect, and the value of that was calculated as follows:FICI = FICa + FICb FICa = MIC combination peptide/MIC single peptide FICb = MIC combination antibiotic/MIC single antibiotic
(§2) The FICI value was interpreted as “synergy” (FICI ≤ 0.5), “no interaction” (0.5 < FICI ≤ 4), or “antagonism” (FICI > 4).
(§3) The bacteria were also cultured, subcultured, diluted, and incubated as the methods of the MBIC assay. All experimental groups were included in a peptide and antibiotic co-administration of MIC assay. To ensure that the mixture was evenly dispersed, the plate was placed in a shaker and incubated for 24 h at 37 and 220× g. The plate was twice rinsed with 200 µL of PBS solution following a 24 h incubation period with peptides and diluted bacterial cultures. Each well received a separate addition of 100 μL of methanol and 0.1% crystal violet solution (Sigma-Aldrich, London, UK), which was left there for 20 min. The plate was then carefully cleaned under running water. Following the drying process, each well received 160 µL of acetic acid (33% in dd water, Sigma-Aldrich, UK). Additionally, the absorbance was measured at λ = 595 nm using the Synergy HT plate reader. FICI values were calculated and identified for our peptide and antibiotic co-administration of MIC assay.

[3] = tested on: P. aeruginosa 14 biofilm; details: checkerboard MBIC, 24 h, crystal violet, 595 nm
Protocol: as §1, §2, §3

[4] = tested on: P. aeruginosa ATCC BAA-2108 biofilm; details: checkerboard MBIC, 24 h, crystal violet, 595 nm
Protocol: as §1, §2, §3

[5] = tested on: MRSA NCTC 12493 biofilm; details: checkerboard MBIC, 24 h, crystal violet, 595 nm
Protocol: as §1, §2, §3

[6] = tested on: K. pneumoniae ATCC 43816 biofilm; details: checkerboard MBIC, 24 h, crystal violet, 595 nm
Protocol: as §1, §2, §3

[7] = tested on: P. aeruginosa ATCC 27853 biofilm; details: checkerboard MBIC, 24 h, crystal violet, 595 nm
Protocol: as §1, §2, §3

[8] = tested on: S. aureus ATCC 6538 biofilm; details: checkerboard MBIC, 24 h, crystal violet, 595 nm
Protocol: as §1, §2, §3

[9] = tested on: P. aeruginosa 01 biofilm; details: checkerboard MBIC, 24 h, crystal violet, 595 nm
Protocol: as §1, §2, §3

[10] = tested on: K. pneumoniae ATCC 43816; details: checkerboard MIC, planktonic K. pneumoniae ATCC 43816, 37 °C, 24 h, OD 550 nm
Protocol: (§4) The bacteria were cultured, subcultured, diluted, and incubated as the methods of the MIC assay. The pure peptides and antibiotics were weighed and, respectively, dissolved in DMSO and dd water to make the final concentration of 2× MIC. […] Different concentrations of peptide and antibiotic solutions were added to a 96-well plate in the form of a checkerboard grid. The blank control and growth control were still 100 µL medium and 100 µL bacterial culture. The plate was incubated at 37 °C for 24 h. After that, the plate reader was used to monitor the absorbance of each well at 550 nm (The Synergy TM HT, BioTek, Winooski, VT, USA).
as §1, §2

[11] = tested on: MRSA NCTC 12493; details: checkerboard MIC, planktonic MRSA NCTC 12493, 37 °C, 24 h, OD 550 nm
Protocol: as §4, §1, §2

[12] = tested on: P. aeruginosa ATCC CRM 9027; details: checkerboard MIC, planktonic P. aeruginosa ATCC CRM 9027, 37 °C, 24 h, OD 550 nm
Protocol: as §4, §1, §2

[13] = tested on: S. aureus ATCC 6538; details: checkerboard MIC, planktonic S. aureus ATCC 6538, 37 °C, 24 h, OD 550 nm
Protocol: as §4, §1, §2

[14] = tested on: Yeast; experiment: Geometric mean of MICs and TI value; type: cell-based, Candida albicans; details: C. albicans ATCC 10231
Protocol: The therapeutic potential of antimicrobial agents was valued based on their selectivity toward bacteria in reference to erythrocytes. The TI value was calculated from the results of antibacterial and haemolysis experiments of peptides using the following formula:TI value = HC10 / GMMICs.
GM was the geometric mean of MICs against all tested bacteria.

[15] = tested on: E. coli (ATCC 8739); experiment: microbe, parasite or virus in culture; type: cell-based, Escherichia coli; details: planktonic E. coli ATCC 8739; for MIC: 37 °C, nine repeats of three independent experiments, read-out: MIC; for MBC: lowest concentration killing 99.9% of inoculum, read-out: MBC
Excerpt: The minimum inhibitory concentration (MIC) is the minimum concentration of an antimicrobial agent that prevents the visible growth of a bacterium or bacteria. The MIC is an important piece of data for research on new antimicrobial agents and helps in the effective selection of antibiotics to improve the success of treatment. The minimum bactericidal concentration (MBC) is defined as the lowest antibiotic concentration that kills 99.9% of the inoculum. This study mainly contained eight different microorganisms, which were Staphylococcus aureus (ATCC 6538), methicillin-resistant Staphylococcus aureus (NCTC 12493), Enterococcus faecalis (NCTC 12697), Escherichia coli (ATCC 8739), Klebsiella pneumoniae (ATCC 43816), Pseudomonas aeruginosa (ATCC CRM 9027), Acinetobacter baumannii (BAA 747), and Candida albicans (ATCC 10231). The bacteria were incubated in the compatible medium at 37 °C overnight.

[16] = peptide combined with gentamicin
[17] = peptide combined with levofloxacin
[18] = peptide combined with vancomycin

Row | Compound | Biofilm FICI ([1]; peptide combined with cefepime) | Biofilm FICI [1, 16] | Biofilm FICI ([2]; peptide combined with cefepime) | Biofilm FICI [2, 16] | Biofilm FICI ([3]; peptide combined with cefepime) | Biofilm FICI [3, 16] | Biofilm FICI ([4]; peptide combined with cefepime) | Biofilm FICI [4, 16] | Biofilm FICI ([5]; peptide combined with cefepime) | Biofilm FICI [5, 16] | Biofilm FICI ([6]; peptide combined with cefepime) | Biofilm FICI [6, 16] | Biofilm FICI ([7]; peptide combined with cefepime) | Biofilm FICI [7, 16] | Biofilm FICI ([8]; peptide combined with cefepime) | Biofilm FICI [8, 16] | Biofilm FICI ([9]; peptide combined with cefepime) | Biofilm FICI [9, 16] | FICI ([10]; peptide combined with cefepime) | FICI [10, 16] | also measured
1 | CC[C@H](C)[C@H](NC(=O)[C@H](CCCCN)NC(=O)[C@H](CCCCN)NC(=O)CNC(=O)[C@H](C)NC(=O)[C@H](CCCNC(=N)N)NC(=O)[C@H](CC(C)C)NC(=O)[C@@H](NC(=O)[C@H](C)NC(=O)[C@H](CCCNC(=N)N)NC(=O)[C@H](CC(C)C)NC(=O)[C@H](CC(C)C)NC(=O)CN)C(C)C)C(=O)N[C@H](C(=O)N[C@H]1CSSC[C@@H](C(=O)O)NC(=O)[C@H](CCCNC(=N)N)NC(=O)CNC(=O)[C@H](CO)NC(=O)[C@H](CC(C)C)NC(=O)CNC1=O)C(C)C [Peptide 2170-2R] (H-GLLRAVLRAGKKIVCGLSGRC-OH; disulfide 15-21) | 0.5 | 1 | 0.625 | 0.75 | 0.375 | 1 | 1 | >3 | 0.5 | 1.125 | 3 | 1.125 | 0.5 | 0.25 | 1 | 0.25 | 0.5 | 1 | 0.1875 | 0.1562 | FICI [10, 17]: 1; FICI [10, 18]: 1.125; FICI ([11]; peptide combined with cefepime): 0.75; FICI [11, 16]: 0.375; FICI [11, 17]: 1.125; FICI [11, 18]: 0.625; FICI ([12]; peptide combined with cefepime): 0.5; FICI [12, 16]: 0.5; FICI [12, 17]: 0.625; FICI [12, 18]: 1.125; FICI ([13]; peptide combined with cefepime): 1; FICI [13, 16]: 1; FICI [13, 17]: 0.625; FICI [13, 18]: 0.625; GM (geometric mean of MICs), Yeast [14]: 64.00 µM; MIC [15]: 4 µM (≈ 8.67 µg/mL); MBC [15]: 8 µM (≈ 17.3 µg/mL)
2 | CC[C@H](C)[C@H](NC(=O)[C@H](CCCCN)NC(=O)[C@H](CCCCN)NC(=O)CNC(=O)[C@H](C)NC(=O)CNC(=O)[C@H](CC(C)C)NC(=O)[C@@H](NC(=O)CNC(=O)[C@H](CO)NC(=O)[C@H](CC(C)C)NC(=O)[C@H](CC(C)C)NC(=O)CN)C(C)C)C(=O)N[C@H](C(=O)N[C@H]1CSSC[C@@H](C(=O)O)NC(=O)[C@H](CCCNC(=N)N)NC(=O)CNC(=O)[C@H](CO)NC(=O)[C@H](CC(C)C)NC(=O)CNC1=O)C(C)C [Nigrosin-6VL] (H-GLLSGVLGAGKKIVCGLSGRC-OH; disulfide 15-21) | 0.3125 | 0.5 | 0.5 | 0.5 | 0.25 | 0.5 | 0.625 | 1 | 0.75 | 0.375 | 1.25 | 0.5 | 1 | 0.25 | 1 | 0.5 | 0.625 | 0.625 | 0.1875 | 0.1875 | FICI [10, 17]: 0.625; FICI [10, 18]: 1.125; FICI ([11]; peptide combined with cefepime): 0.75; FICI [11, 16]: 0.5; FICI [11, 17]: 2; FICI [11, 18]: 1; FICI ([12]; peptide combined with cefepime): 0.5; FICI [12, 16]: 0.5; FICI [12, 17]: 0.5; FICI [12, 18]: >4; FICI ([13]; peptide combined with cefepime): 0.625; FICI [13, 16]: 1.5; FICI [13, 17]: 0.625; FICI [13, 18]: 2.25; GM (geometric mean of MICs), Yeast [14]: 128.00 µM; MIC [15]: 64 µM (≈ 127 µg/mL); MBC [15]: 128 µM (≈ 254 µg/mL)
